Test results from patent US20220296637A1, “SODIUM THIOSULFATE GEL FOR PREVENTING OR REDUCING HEARING LOSS” (STICHTING HET NEDERLANDS KANKER INSTITUUT-ANTONI VAN …, priority 2019, published 2022).

Tests used:
[1] = reported incidences vary widely amongst studies; cited from earlier work
[2] = system: cisplatin-induced hearing loss (CIHL); conditions: cited from earlier work; for patients in whom CIHL was seen: 61 patients treated with STS (intravenous), 64 with cisplatin alone, p=0.00022; for overall survival: children with disseminated disease, additional intravenous STS vs cisplatin alone, p=0.009
[3] = system: cisplatin-induced hearing loss; conditions: transtympanic STS gel (0.5 M, 0.1 ml, 24 hours prior to cisplatin); 13 patients; 3 to 10 kHz; not significant; cited from earlier work
[4] = system: cisplatin-induced hearing loss (CIHL); conditions: cited from earlier work
[5] = in vivo; cited from earlier work
[6] = system: cisplatin-induced hearing loss (CIHL); experiment: Phase 1 trial of transtympanic STS gel: audiometry (pure tone averages) for efficacy against cisplatin-induced hearing loss; format: in vivo, human; conditions: for Δ PTA 0.5-1-2 kHz (posttreatment − baseline) / Δ PTA 1-2-4 kHz (posttreatment − baseline) / Δ PTA 8-10-12.5 kHz (posttreatment − baseline): STS-treated ears; for difference in ΔPTA3 in favour of the untreated ear: last non-responder
Protocol: Arm A was a single-blind, placebo controlled, proof-of-concept study. A different application method was investigated in arm B, which was a non-blinded, non-placebo controlled, proof of concept arm. The ear to be treated with the transtympanic STS gel was assigned by randomisation in both arms. The study was performed at the Netherlands Cancer Institute in Amsterdam, the Netherlands. The protocol was approved by the institutional medical research ethics committee. The study is registered with the European Clinical Trials Database (EudraCT) (EudraCT: 2012-004653-80). […] Exclusion criteria were: known symptomatic brain or leptomeningeal metastases and relevant otological history (e.g. conductive hearing loss, vertigo). All patients gave written informed consent prior to start of study procedures. The ear to be treated with the transtympanic STS gel was assigned by randomisation in both arm A and arm B. Arm A concerned a single-blind study protocol in which the contralateral ear was treated with a placebo gel. Arm B was non-blinded and the contralateral ear was left untreated. The enrolment of patients was done by a treating physician. Randomisation was done via a randomisation program at the institutional trial centre. […] In arm B only the STS gel was prepared. Syringes with study medication were warmed up to body temperature (37° C.) for 30 minutes in an incubator ([…], Switzerland) to prevent hypo- or hypercaloric symptoms during or after injections. The syringe was connected to the (Braun, […]) needle via a 10 cm infusion line (BD Becton Dickenson connecta). […] To approach the eardrum in a perpendicular orientation. In arm A, the gels were administered through a […] grommet, which was placed for venting air to prevent barotrauma and/or pain while injecting. During this procedure we noticed there was backflow of the gel via the infusion needle backward into the external ear canal. Therefore, a different protocol for the transtympanic injection was chosen in arm B for the next 6 patients: the grommet was still placed in the anterior eardrum for ventilation of the middle ear, however, the STS gel was injected via the needle directly through the posterior part of the eardrum and indeed backflow into the external ear was not seen anymore. Topical anesthesia was applied using a few small (3×3 mm) gauzes with xylocaine 10% (lidocaine 100 mg/ml, AstraZeneca, United Kingdom) applied on the eardrum before placement of the grommet and the injections. During the injections, the patient was lying in a hospital bed with the upper body positioned 30 degrees upwards. After administration of the gel the patients head was turned 45 degrees contralateral. […] The specific positioning of the patient was in our view needed to for improved and/or prolonged exposure of the STS gel to the round window of the middle ear. […] If concomitant chemotherapy or radiotherapy was to be administered, this was done as per local protocol. […] Standard audiometry including air conduction (AC) and bone conduction (BC) thresholds was performed in a sound proof booth using the Decos Audiology Workstation. […] Six evaluable patients per study arm were considered sufficient to reach proof of concept based on the intra-patient comparison and the expected audiometric difference between the STS-treated and untreated/placebo treated ears. […] To study whether there was a significant difference in CIHL over time ([…]) between the STS ears and the untreated ears, the […] with paired samples was used.

[7] = guinea pigs; cited from earlier work

Compound: N.N.[Cl][Pt][Cl] [Cisplatin, cis-diaminedichloroplatinum(II)]
- occurrence of cisplatin-induced hearing loss in cisplatin-treated patients [1]: 75-80%
- patients in whom CIHL was seen [2]: 56%
- overall survival [2]: 84%

Compound: O=S([O-])([O-])=S.[Na+].[Na+] [STS, sodium thiosulfate]
- averaged hearing loss less in STS-treated ears than in untreated ears [3]: 1.3 dB
- adverse events likely attributed to intravenous STS administration ([4]; children): tumour progression and grade 3 infection, neutropenia, electrolyte disorders and anaemia
- relative risk of CIHL ([4]; intravenous STS, 95% confidence interval 0.33-0.81): 52%
- reduction of the incidence of CIHL versus cisplatin alone ([4]; intravenous STS, 109 children, p=0.002): 48%
- oral bio-availability [5]: poor
- Δ PTA 0.5-1-2 kHz (posttreatment − baseline) ([6]; 4 patients with ototoxicity who responded to STS-gel): −0.4 dB HL
- Δ PTA 1-2-4 kHz (posttreatment − baseline) ([6]; 4 responders): −0.4 dB HL
- Δ PTA 8-10-12.5 kHz (posttreatment − baseline) ([6]; 4 responders): 6.8 dB SPL
- occurrence of SNHL (ΔPTA3 ≥10 dB), STS-treated versus untreated ears ([6]; 12 STS-treated ears vs 12 untreated ears, McNemar p=0.125): no statistically significant difference
- Δ PTA 1-2-4 kHz (posttreatment − baseline) ([6]; all 12 patients): 2.5 dB HL
- Δ PTA 8-10-12.5 kHz (posttreatment − baseline) ([6]; all 12 patients): 8.8 dB SPL
- ΔPTA3 (8-10-12.5 kHz), overall ([6]; all 12 patients, STS-treated ears (untreated ears 12.7 dB)): 8.8 dB
- Δ PTA 0.5-1-2 kHz (posttreatment − baseline) ([6]; all 12 patients, directly after last cisplatin cycle minus baseline): 2.1 dB HL
- ΔPTA3 ([6]; four non-responders, STS-treated ears (untreated ears 15.2 dB)): 14.3 dB
- mean ΔPTA3 ([6]; four responders, STS-treated ears (untreated ears 25.2 dB)): 6.8 dB
- difference in ΔPTA3 between STS-treated ears and untreated ears ([6]; four responders, in favour of STS-treated ear, range 11.7-33.3 dB): 18.4 dB
- difference in ΔPTA3 in favour of the untreated ear ([6]; at follow-up audiometry): 2.3 dB SPL
- difference in ΔPTA3 in favour of the untreated ear ([6]; directly after treatment): 10.0 dB SPL
- difference in ΔPTA3 between ears ([6]; three of the four non-responders): < 10 dB SPL
- perilymph STS concentrations, transtympanic injections compared with intravenous infusion [7]: higher
- patients in whom CIHL was seen [2]: 29%
- overall survival [2]: 45%
